Source: patent US9187496B2 (priority 2009, dated 2015)
Where two headings read alike, the source gives them in different places.

Key:
[1] = system: HCV genotype 4a-specific NS5A gene within the 1b-replicon; test: Luciferase replicon assay, NS5A-intergenotypic stable cell line genotype 4a; type: cell-based; conditions: Hepatitis C virus, read-out: EC50 4a
Excerpt: (§1) The nucleotide sequences of the NS5A region of genotype 2a (GenBank Accession #AB047639), genotype 3a (GenBank Accession #D17763), and genotype 4a (GenBank Accession#DQ418788) were synthesized by an outside vendor. The NS5A region of each of these genotypes included the first 11 amino acids of the protease recognition sequence of genotype 1b, as well as the last 10 amino acids of genotype 1b. The NS5A gene cassettes were excised with site specific restriction endonucleases and ligated into a ZS11-luciferase genotype 1b backbone (backbone contains the genotype 1b NS3 protease, NS4a, NS4b, and NS5b coding regions) with similarly cut restriction enzyme sites. Thus, the newly constructed plasmid contains a genotype 2a-, 3a- or 4a-specific NS5A gene within the 1b-replicon.
(§2) These new intergenotypic plasmids were used to establish stable cell lines. RNA was generated from the NS5A intergenotypic plasmids and used in conjunction with a lipofectin reagent to transfect a cured Huh7 cell line. Transfected cells were selected for with G418. After selection has occurred the stable cell lines were propagated, tested for luciferase activity, and RT-PCR with genotype specific primers (either 1a, 2a, 3a, or 4a). Stable cell lines containing the intergenotypic replicon were then fully sequenced and analysed for proper expression of NS3, NS5A and NS5B proteins.
(§3) Drug titration analysis was performed using the luciferase replicon assay described herein.
(§4) The HCV luciferase replicon assay measures the ability of a test compound to inhibit HCV replication in cell culture after 3 days of treatment in a human hepatoma cell line (Huh-7) bearing a HCV replicon containing a luciferase-neomycin phosphotransferase fusion gene. The inhibition of HCV replication was measured by quantification of luciferase protein expression. Briefly, Huh-7 cells containing either the HCV genotype 1a H77 strain or genotype 1b Conl strain subgenomic luciferase replicon (H1a-luc or Zluc, respectively) were grown in DMEM containing glucose, L-glutamine and sodium pyruvate, 10% fetal bovine serum (FBS), 100 IU/mL penicillin, 100 μg/mL streptomycin, 2 mM GlutaMAX, non-essential amino acids and 0.25 (H1a-luc) or 0.5 (Zluc) mg/mL G418. GlutaMAX was obtained from Invitrogen, Corp.; all other media reagents were obtained from Mediatech, Inc. For dose-response testing, the cells were seeded in 96-well plates at 1×10^4 (H1a-luc) or 7.5×10^3 (Zluc) cells/well in a volume of 50 μL, and incubated at 37° C./5% CO2. Three hours after plating, 50 μL of ten 5-fold serial dilutions of compound were added, and cell cultures were incubated at 37° C./5% CO2 for 72 hours. In all cases, Huh-7 cells lacking the HCV replicon served as negative control. To assess luciferase expression, the media/compound was removed from the plates and ONE-glo Luciferase assay reagent (Promega) was added to each well. The assay plates were shaken for 3 minutes at room temperature and luciferase activity for each well was measured with a 1 sec read time on the Victor^3V multilabel counter using a 700 nm cut-off filter (Perkin Elmer). EC50 values were calculated from dose response curves from the resulting best-fit equations determined by Microsoft Excel and XLfit 4.1 software.

[2] = system: HCV genotype 2a-specific NS5A gene within the 1b-replicon; test: Luciferase replicon assay, NS5A-intergenotypic stable cell line genotype 2a; type: cell-based; conditions: Hepatitis C virus, read-out: EC50 2a
Excerpt: as §1, §2, §3, §4

[3] = system: HCV genotype 3a-specific NS5A gene within the 1b-replicon; test: Luciferase replicon assay, NS5A-intergenotypic stable cell line genotype 3a; type: cell-based; conditions: Hepatitis C virus, read-out: EC50 3a
Excerpt: as §1, §2, §3, §4

[4] = Cytotoxicity evaluation in luciferase replicon cells (Cell Titer 96 AQueous One); type: cell-based, human; conditions: human; Table 1B, cellular viability
Experimental: For cytotoxicity evaluation, H1a-luc or Zluc cells were treated with compounds as described above and cellular viability was monitored using the Cell Titer 96 AQueous One Solution Cell Proliferation Assay (Promega). Plates were then read at 490 nm in a Victor^3V 1420 multilabel counter (Perkin Elmer) and CC50 concentrations were determined using Microsoft Excel and XLfit 4.1 software.

[5] = system: HCV genotype 1b Conl strain subgenomic luciferase replicon (Zluc); test: Luciferase replicon assay, genotype 1b; type: cell-based; conditions: Hepatitis C virus, 72 h, read-out: EC50 1b
Experimental: as §4

[6] = system: Huh-7 cells containing HCV Con1 subgenomic replicon (GS4.1 cells); test: HCV replicon assay (NS5A ELISA); type: cell-based; conditions: GS4.1 cells, 72 hrs, NS5A ELISA, read-out: EC50
Experimental: General Procedure: Huh-7 cells containing HCV Con1 subgenomic replicon (GS4.1 cells) were grown in Dulbecco's Modified Eagle Medium (DMEM) supplemented with 10% fetal bovine serum (FBS), 2 mM L-glutamine, 110 mg/L sodium pyruvate, 1× non-essential amino acids, 100 U/mL penicillin-streptomycin, and 0.5 mg/mL G418 (Invitrogen). For dose-response testing, the cells were seeded in 96-well plates at 7.5×10^3 cells/well in a volume of 50 μL, and incubated at 37° C./5% CO2. Three hours after plating, 50 μL of ten 2-fold serial dilutions of compounds (highest concentration, 75 μM) were added, and cell cultures were incubated at 37° C./5% CO2 in the presence of 0.5% DMSO. Alternatively, compounds were tested at a single concentration of 15 μM. In all cases, Huh-7 cells lacking the HCV replicon served as negative control. The cells were incubated in the presence of compounds for 72 hrs after which they were monitored for expression of the NS5A protein by enzyme-linked immunosorbent assay (ELISA). For this, the plates were then fixed for 1 min with acetone/methanol (1:1, v/v), washed twice with phosphate-buffered saline (PBS), 0.1% Tween 20, blocked for 1 hr at room temperature with TNE buffer containing 10% FBS and then incubated for 2 hr at 37° C. with the anti-NS5A mouse monoclonal antibody A-236 (ViroGen) diluted in the same buffer. After washing three times with PBS, 0.1% Tween 20, the cells were incubated 1 hr at 37° C. with anti-mouse immunoglobulin G-peroxidase conjugate in TNE, 10% FBS. After washing as described above, the reaction was developed with O-phenylenediamine (Zymed). The reaction was stopped after 30 min with 2 N H2SO4, and absorbance was read at 492 nm using Sunrise Tecan spectrophotometer. EC50 values were determined from the % inhibition versus concentration data using a sigmoidal non-linear regression analysis based on four parameters with Tecan Magellan software.

GS4.1 cells = test: Cytotoxicity evaluation in GS4.1 cells (Cell Titer 96 AQueous One); type: cell-based, human; conditions: cellular viability
Experimental: For cytotoxicity evaluation, GS4.1 cells were treated with compounds as described above and cellular viability was monitored using the Cell Titer 96 AQueous One Solution Cell Proliferation Assay (Promega). CC50 values were determined from the % cytotoxicity versus concentration data with Tecan Magellan software as described above.

Row | SMILES | CC50 (GS4.1 cells) [nM] | EC50 ([6]; Hepatitis C virus, Huh-7) [nM] | further results
1 | COC(=O)N[C@H](C(=O)N1CCCC1c1nc(-c2cc3sc(-c4ccc(-c5cnc([C@@H]6CCCN6C(=O)[C@@H](c6ccccc6)N6CCCCC6)[nH]5)cc4)cc3o2)c[nH]1)C(C)C (some centres unmarked) [Compound A212] | – | – | EC50 [1]: < 0.1 nM; EC50 [2]: < 0.1 nM; EC50 [3]: < 0.1 nM; CC50 at 72 h [4]: 10000 to 75000 nM; EC50 [5]: < 0.1 nM
2 | COC(=O)N[C@H](C(=O)N1CCC[C@H]1c1ncc(-c2ccc(-c3csc4c(-c5ccc6[nH]c([C@@H]7CCCN7C(=O)[C@@H](NC(=O)OC)C(C)C)nc6c5)csc34)cc2)[nH]1)C(C)C [Compound A171, [(S)-1-((S)-2-{4-[4-(6-{2-[(S)-1-((S)-2-methoxycarbonylamino-3-methyl-butyryl)-pyrrolidin-2-yl]-3H-benzoimidazol-5-yl}-thieno[3,2-b]thiophen-3-yl)-phenyl]-1H-imidazol-2-yl}-pyrrolidine-1-carbonyl)-2-methyl-propyl]-carbamic acid methyl ester] | – | – | EC50 [1]: < 0.1 nM; EC50 [2]: 0.1 to 1 nM; EC50 [3]: 1 to 10 nM; CC50 at 72 h [4]: > 75000 nM; EC50 [5]: < 0.1 nM
3 | COC(=O)N[C@H](C(=O)N1CCC[C@H]1c1ncc(-c2ccc(-c3csc4c(-c5cnc([C@@H]6CCCN6C(=O)[C@H](NC(=O)OC)c6ccccc6)[nH]5)csc34)cc2)[nH]1)C(C)C [Compound A200, [(S)-1-((S)-2-{4-[4-(6-{2-[(S)-1-((R)-2-methoxycarbonylamino-2-phenyl-acetyl)-pyrrolidin-2-yl]-3H-imidazol-4-yl}-thieno[3,2-b]thiophen-3-yl)-phenyl]-1H-imidazol-2-yl}-pyrrolidine-1-carbonyl)-2-methyl-propyl]-carbamic acid methyl ester] | – | – | EC50 [1]: < 0.1 nM; EC50 [2]: < 0.1 nM; EC50 [3]: < 0.1 nM; CC50 at 72 h [4]: > 75000 nM; EC50 [5]: < 0.1 nM
4 | COC(=O)N[C@H](C(=O)N1CCC[C@H]1c1ncc(-c2csc3c(-c4ccc5[nH]c([C@@H]6CCCN6C(=O)[C@@H](NC(=O)OC)C(C)C)nc5c4)csc23)[nH]1)C(C)C [Compound A173, ((S)-1-{(S)-2-[6-(6-{(S)-2-[1-((S)-2-methoxycarbonylamino-3-methyl-butyryl)-pyrrolidin-2-yl]-1H-imidazol-4-yl}-thieno[3,2-b]thiophen-3-yl)-1H-benzoimidazol-2-yl]-pyrrolidine-1-carbonyl}-2-methyl-propyl)-carbamic acid methyl ester] | – | – | EC50 [1]: 1 to 10 nM; EC50 [2]: 1 to 10 nM; EC50 [3]: 1 to 10 nM; CC50 at 72 h [4]: 10000 to 75000 nM; EC50 [5]: < 0.1 nM
5 | COC(=O)N[C@H](C(=O)N1CCCC1c1ncc(-c2ccc(-c3csc4c(-c5cnc(C6CCCN6C(=O)OC(C)(C)C)[nH]5)csc34)cc2)[nH]1)C(C)C (some centres unmarked) [A151] | 10000 to 75000 | – | EC50 [6]: < 1 nM
6 | COC(=O)N[C@@H](C(=O)N1CCC[C@H]1C(=O)Nc1ccc(-c2cn3cc(NC(=O)[C@@H]4CCCN4C(=O)[C@H](NC(=O)OC)c4ccccc4)nc3s2)cc1)c1ccccc1 [A79] | > 75000 | – | EC50 [6]: < 1 nM
7 | CC(C)(C)OC(=O)N[C@@H](C(=O)N1CCC[C@H]1C(=O)Nc1cn2cc(-c3ccccc3)sc2n1)c1ccccc1 [A27] | > 75000 | 10 to 100 | –
8 | COC(=O)N[C@H](C(=O)N1CCC[C@H]1c1ncc(-c2ccc(-c3cn4cc(NC(=O)CNC(=O)[C@H](NC(=O)OC(C)(C)C)c5ccccc5)nc4s3)cc2)[nH]1)C(C)C [A148] | > 75000 | 1 to 10 | –
9 | COC(=O)N[C@H](C(=O)N1CCC[C@H]1c1ncc(-c2ccc(-c3cn4cc(NC(=O)C5CCCN5C(=O)CNC(=O)OC(C)(C)C)nc4s3)cc2)[nH]1)C(C)C (some centres unmarked) [A31] | > 75000 | 10 to 100 | –
10 | COC(=O)N[C@H](C(=O)N1CCC[C@H]1C(=O)Nc1cn2cc(-c3ccc(NC(=O)CNC(=O)[C@H](NC(=O)OC(C)(C)C)c4ccccc4)cc3)sc2n1)C(C)C [A147] | > 75000 | 10 to 100 | –
11 | CC(C)(C)OC(=O)N[C@@H](C(=O)N1CCC[C@H]1C(=O)Nc1cn2cc(C#Cc3ccccc3)sc2n1)c1ccccc1 [Compound A23] | 10000 to 75000 | > 100 | –
12 | CC(C)(C)OC(=O)Nc1ccc(-c2cn3cc(NC(=O)[C@@H]4CCCN4C(=O)[C@H](NC(=O)OC(C)(C)C)c4ccccc4)nc3s2)cc1 [A29] | 10000 to 75000 | > 100 | –
13 | CC(C)(C)OC(=O)N1CCCC1c1nc(-c2ccc(-c3cn4cc(-c5ccc(-c6cnc([C@@H]7CCCN7C(=O)OC(C)(C)C)[nH]6)cc5)sc4n3)cc2)c[nH]1 (some centres unmarked) [A157] | > 75000 | 10 to 100 | –
14 | COC(=O)N[C@H](C(=O)N1CCCC1c1ncc(-c2ccc(-c3csc4c(-c5cnc(C6CCCN6C(=O)[C@H](NC(=O)OC)C(C)C)[nH]5)csc34)cc2)[nH]1)C(C)C (some centres unmarked) [A77] | > 75000 | < 1 | –
15 | COC(=O)N[C@H](C(=O)N1CCCC1c1ncc(-c2ccc(-c3ccc(-c4nc5sccn5c4Cl)cc3)cc2)[nH]1)C(C)C (some centres unmarked) [A154] | 10000 to 75000 | 10 to 100 | –
16 | COC(=O)N[C@H](C(=O)N1CCCC1c1ncc(-c2ccc(-c3csc4cc(C(=O)OC)[nH]c34)cc2)[nH]1)C(C)C (some centres unmarked) [A164] | 10000 to 75000 | 10 to 100 | –
17 | COC(=O)N[C@H](C(=O)N1CCC[C@H]1C(=O)Nc1cn2cc(-c3cccc(NC(=O)[C@@H]4CCCN4C(=O)[C@H](NC(=O)OC)c4ccccc4)c3)sc2n1)C(C)C [A149] | 10000 to 75000 | 10 to 100 | –
18 | CC(C)(C)OC(=O)N1CCCC1c1ncc(-c2cn3cc(-c4ccc(Cl)cc4)sc3n2)[nH]1 (centres unmarked) [A152] | 10000 to 75000 | > 100 | –
19 | COC(=O)N[C@H](C(=O)N1CCCC1c1ncc(-c2ccc(-n3ccc4c(-c5cnc(C6CCCN6C(=O)[C@@H](NC(=O)OC)C(C)C)[nH]5)csc43)c(Cl)c2)[nH]1)C(C)C (some centres unmarked) [Compound A213] | – | – | CC50 at 72 h [4]: 10000 to 75000 nM; EC50 [5]: < 0.1 nM
